Test results taken from patent US7964627B2, “Amino arylsulfonamide compounds and their use as 5-HT6 ligands” (Suven Life Sciences Limited, priority 2007, dated 2011).

Experiments:
Human 5-HT6 receptor = biological target: T1, Human 5-HT6 receptor (Homo sapiens, UniProt P50406); assay: Binding assay for human 5-HT6 receptor ([3H]LSD radioligand); settings: human recombinant receptor in HEK293 cells; for inhibition at 0.1 µM: 100 nM test compound, [3H]LSD 1.5 nM, read-out: % Inhibition of specific binding at 100 nM; for Ki: [3H]LSD
T1 construct: expressed in transfected cells; host or cells: HEK293 cells
T1 sequence (P50406 whole entry): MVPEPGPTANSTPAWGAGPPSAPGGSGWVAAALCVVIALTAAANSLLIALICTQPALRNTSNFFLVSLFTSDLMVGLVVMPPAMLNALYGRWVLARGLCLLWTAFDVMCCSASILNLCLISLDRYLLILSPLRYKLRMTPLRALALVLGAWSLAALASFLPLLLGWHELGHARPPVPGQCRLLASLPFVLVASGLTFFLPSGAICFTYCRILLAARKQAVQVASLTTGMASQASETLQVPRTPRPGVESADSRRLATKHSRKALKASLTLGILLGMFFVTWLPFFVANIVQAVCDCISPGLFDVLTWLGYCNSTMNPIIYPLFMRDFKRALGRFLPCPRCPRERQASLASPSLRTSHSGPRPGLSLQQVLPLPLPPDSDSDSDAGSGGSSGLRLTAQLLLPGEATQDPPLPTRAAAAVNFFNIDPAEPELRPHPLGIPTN
Procedure: Compounds can be tested according to the following the procedures.
Receptor source: Human recombinant expressed in HEK293 cells
Radioligand: [^3H]LSD (60-80 Ci/mmol)
Final ligand concentration—[1.5 nM]
Non-specific determinant: Methiothepin mesylate—[0.1 μM]
Reference compound: Methiothepin mesylate
Positive control: Methiothepin mesylate
Reactions were carried out in […] TRIS-HCl (pH 7.4) containing 10 μM MgCl2, 0.5 mM EDTA for 60 minutes at 37° C. The reaction was terminated by rapid vacuum filtration onto glass fiber filters. Radioactivity trapped onto the filters was determined and compared to control values in order to ascertain any interactions of test compound(s) with the cloned serotonin 5-HT6 binding site.
Percent Inhibition of Specific Binding at 100 nM Concentrations
Literature Reference: Monsma F. J. Jr., et al., Molecular Cloning and Expression of Novel Serotonin Receptor with High Affinity for Tricyclic Psychotropic Drugs. Mol. Pharmacol. (43): 320-327 (1993).

[1] = Rodent brain penetration study (steady state); assay type: in vivo, Male Wister rats; settings: Wistar, brain and plasma; Wister/Male rat, 10 mg/kg, Oral, vehicle water; read-out: Steady State Brain Penetration Cb/Cp
[2] = Rodent pharmacokinetic study; assay type: in vivo, Male wistar rats; settings: plasma, Wistar/Male rat, 10 mg/kg; for AUC(0-t) / Cmax / Tmax / half-life: vehicle water; for bioavailability: Oral vs Intravenous
Procedure: Male wistar rats (230-280 grams) obtained from NIN (National Institute of Nutrition, Hyderabad, India) were used as an experimental animal.
Three to five animals were housed in each cage. Animals were kept fasted over night and maintained on a 12 hours light/dark cycle. Three rats were dosed NCE (10 mg/Kg) orally and intravenously on day 0 and day 2.
At each time point blood was collected by jugular vein. Plasma was stored frozen at −20° C. until analysis. The concentrations of the NCE compound in plasma were determined using LC-MS/MS method.
Schedule time points: Pre dose 0.25, 0.5, 1, 1.5, 2, 3, 4, 6, 8, 10, 12 and 24 hours after dosing (n=3). The NCE compounds were quantified in plasma by validated LC-MS/MS method using solid phase extraction technique. NCE compounds were quantified in the calibration range of 2-2000 ng/ml in plasma. Study samples were analyzed using calibration samples in the batch and quality control samples spread across the batch.
Pharmacokinetic parameters Cmax, Tmax, AUCt, AUCinf, half life, volume of distribution, clearance, mean residence time and thereby oral bioavailability were calculated by non-compartmental model using software WinNonlin version 5.1.

rats = assay: Water maze, scopolamine induced reversal; assay type: in vivo; settings: p.o.
Procedure: The water maze apparatus consisted of a circular pool (1.8 m diameter, 0.6 m high) constructed in black Perspex (TSE systems, Germany) filled with water (24±2° C.) and positioned underneath a wide-angled video camera to track animal. The 10 cm^2 perspex platform, lying 1 cm below the water surface, was placed in the centre of one of the four imaginary quadrants, which remained constant for all rats. The black Perspex used in the construction of the maze and platform offered no intramaze cues to guide escape behavior. By contrast, the training room offered several strong extramaze visual cues to aid the formation of the spatial map necessary for escape learning. An automated tracking system, [Videomot 2 (5.51), TSE systems, Germany] was employed. This program analyzes video images acquired via a digital camera and an image acquisition board that determined path length, swim speed and the number of entries and duration of swim time spent in each quadrant of the water maze.

Male Wister rats = assay: Object recognition task model (NORT); assay type: in vivo; settings: p.o.; for NORT Discriminative Index (DI), treatment: vehicle value in brackets in the cell; for NORT Inference: 10 and 30 mg/kg
Procedure: The cognition-enhancing properties of compounds of this invention were estimated using a model of animal cognition: the object recognition task model. Male Wister rats (230-280 grams) obtained from N.I.N. (National Institute of Nutrition, Hyderabad, India) were used as experimental animals. Four animals were housed in each cage. Animals were kept on 20% food deprivation before one day and given water ad libitum throughout the experiment and maintained on a 12 hours light/dark cycle. Also the rats were habituated to individual arenas for 1 hour in the absence of any objects.
One group of 12 rats received vehicle (1 mL/Kg) orally and another set of animals received compound of the formula (I) either orally or i.p., before one hour of the familiar (T1) and choice trial (T2).
The experiment was carried out in a 50×50×50 cm open field made up of acrylic. In the familiarization phase, (T1), the rats were placed individually in the open field for 3 minutes, in which two identical objects (plastic bottles, 12.5 cm height×5.5 cm diameter) covered in yellow masking tape alone (a1 and a2) were positioned in two adjacent corners, 10 cm. from the walls. After 24 hours of the (T1) trial for long-term memory test, the same rats were placed in the same arena as they were placed in T1 trial. Choice phase (T2) rats were allowed to explore the open field for 3 minutes in presence of one familiar object (a3) and one novel object (b) (Amber color glass bottle, 12 cm high and 5 cm in diameter). Familiar objects presented similar textures, colors and sizes. During the T1 and T2 trial, explorations of each object (defined as sniffing, licking, chewing or having moving vibrissae whilst directing the nose towards the object at a distance of less than 1 cm) were recorded separately by stopwatch. Sitting on an object was not regarded as exploratory activity, however, it was rarely observed. T1 is the total time spent exploring the familiar objects (a1+a2). T2 is the total time spent exploring the familiar object and novel object (a3+b).
The object recognition test was performed as described by Ennaceur, A., Delacour, J., 1988, A new one-trial test for neurobiological studies of memory in rats-Behavioral data, Behav. Brain Res., 31, 47-59.

[3] = test system: animal models for schizophrenia; settings: Pouzet et al. 2002; cited from earlier work
5-HT6 receptor = settings: literature; cited from earlier work

SMILES: COc1ccc2c(c1)c(C)cn2S(=O)(=O)c1ccc(OC)c(NCCN(C)C)c1 [Example 1, N′-[2-Methoxy-5-(5-methoxy-3-methylindole-1-sulfonyl)phenyl]-N,N-dimethyl ethane-1,2-diamine]
- inhibition at 0.1 µM (Human 5-HT6 receptor): 82.9%

SMILES: COc1ccc2c(c1)c(Cl)cn2S(=O)(=O)c1ccc(OC)c(NCCN(C)C)c1 [Example 2, N′-[5-(3-Chloro-5-methoxyindole-1-sulfonyl)-2-methoxyphenyl]-N,N-dimethyl ethane-1,2-diamine]
- inhibition at 0.1 µM (Human 5-HT6 receptor): 84.9%

SMILES: COc1ccc(S(=O)(=O)n2cc(Cl)c3ccccc32)cc1NCCN(C)C [Example 3, N′-[5-(3-Chloroindole-1-sulfonyl)-2-methoxyphenyl]-N,N-dimethyl ethane-1,2-diamine]
- inhibition at 0.1 µM (Human 5-HT6 receptor): 95.6%
- Ki (Human 5-HT6 receptor): 3.02 nM

SMILES: COc1ccc(S(=O)(=O)n2ccc3ccccc32)cc1NCCN(C)C [Example 4, N′-[5-(Indole-1-sulfonyl)-2-methoxyphenyl]-N,N-dimethyl ethane-1,2-diamine]
- Kp [1]: 20.2 ± 1.84
- inhibition at 0.1 µM (Human 5-HT6 receptor): 90.5%
- Ki (Human 5-HT6 receptor): 1.22 nM
- AUC(0-t) ([2]; Intravenous): 1870 ± 338 ng·h/mL
- Cmax ([2]; Intravenous): 1590 ± 538 ng/mL
- Tmax ([2]; Intravenous): 0.08 h
- half-life ([2]; Intravenous): 2.93 ± 1.29 h
- bioavailability [2]: 5 ± 2%
- AUC(0-t) ([2]; Oral): 88 ± 48 ng·h/mL
- Cmax ([2]; Oral): 41 ± 19 ng/mL
- Tmax ([2]; Oral): 0.58 ± 0.38 h
- half-life ([2]; Oral): 1.95 ± 0.73 h

SMILES: COc1ccc(S(=O)(=O)n2cc(C)c3ccccc32)cc1NCCN(C)C [Example 5, N′-[2-Methoxy-5-(3-methylindole-1-sulfonyl)phenyl]-N,N-dimethyl ethane-1,2-diamine]
- Kp [1]: 13.5 ± 4.28
- inhibition at 0.1 µM (Human 5-HT6 receptor): 93%
- Ki (Human 5-HT6 receptor): 1.52 nM
- Scopolamine Induced Reversal (active dose) (rats): ≧3 mg/kg, p.o.
- AUC(0-t) ([2]; Intravenous): 2860 ± 442 ng·h/mL
- Cmax ([2]; Intravenous): 1960 ± 458 ng/mL
- Tmax ([2]; Intravenous): 0.08 h
- half-life ([2]; Intravenous): 3.37 ± 0.29 h
- bioavailability [2]: 6 ± 1%
- AUC(0-t) ([2]; Oral): 158 ± 20 ng·h/mL
- Cmax ([2]; Oral): 36 ± 8 ng/mL
- Tmax ([2]; Oral): 1.33 ± 0.58 h
- half-life ([2]; Oral): 2.27 ± 0.2 h
- NORT Discriminative Index (DI), treatment (Male Wister rats; 10 mg/kg): 0.46 (0.52)
- NORT Discriminative Index (DI), treatment (Male Wister rats; 30 mg/kg): 0.58 (0.56)
- NORT Inference (Male Wister rats): Active

SMILES: COc1ccc2c(c1)c(C)cn2S(=O)(=O)c1ccc(C)c(NCCN(C)C)c1 [Example 8, N′-[5-(5-Methoxy-3-methylindole-1-sulfonyl)-2-methylphenyl]-N,N-dimethyl ethane-1,2-diamine]
- Ki (Human 5-HT6 receptor): 17.3 nM

SMILES: COc1ccc2c(ccn2S(=O)(=O)c2ccc(C)c(NCCCN(C)C)c2)c1 [Example 9, N′-[5-(5-Methoxyindole-1-sulfonyl)-2-methylphenyl]-N,N-dimethyl propane-1,3-diamine]
- Ki (Human 5-HT6 receptor): 41 nM

SMILES: CCc1ccc(S(=O)(=O)n2ccc3cc(F)ccc32)cc1NCCN(C)C [Example 13, N′-[2-Ethyl-5-(5-fluoroindole-1-sulfonyl)phenyl]-N,N-dimethyl ethane-1,2-diamine]
- inhibition at 0.1 µM (Human 5-HT6 receptor): 70.7%

SMILES: CCc1ccc(S(=O)(=O)n2cc(C)c3cc(OC)ccc32)cc1NCCN(C)C [Example 15, N′-[2-Ethyl-5-(5-methoxy-3-methylindole-1-sulfonyl)phenyl]-N,N-dimethyl ethane-1,2-diamine]
- inhibition at 0.1 µM (Human 5-HT6 receptor): 56.4%

SMILES: Cc1ccc(S(=O)(=O)n2ccc3ccc(Cl)cc32)cc1NCCN(C)C [Example 20, N′-[5-(6-Chloroindole-1-sulfonyl)-2-methylphenyl]-N,N-dimethyl ethane-1,2-diamine]
- inhibition at 0.1 µM (Human 5-HT6 receptor): 100%

SMILES: CN(C)CCNc1cccc(S(=O)(=O)n2ccc3ccc(Cl)cc32)c1 [Example 23, N′-[3-(6-Chloroindole-1-sulfonyl)phenyl]-N,N-dimethyl ethane-1,2-diamine]
- inhibition at 0.1 µM (Human 5-HT6 receptor): 96%

SMILES: CCc1ccc(S(=O)(=O)n2ccc3cc(OC)ccc32)cc1NCCN(C)C [Example 26, N′-[2-Ethyl-5-(5-methoxyindole-1-sulfonyl)phenyl]-N,N-dimethyl ethane-1,2-diamine]
- inhibition at 0.1 µM (Human 5-HT6 receptor): 76%

SMILES: COc1ccc(S(=O)(=O)n2cc(C)c3ccccc32)cc1NCCCN(C)C [Example 31, N′-[2-Methoxy-5-(3-methylindole-1-sulfonyl)phenyl]-N,N-dimethyl propane-1,3-diamine]
- Kp [1]: 3.48 ± 0.27
- Ki (Human 5-HT6 receptor): 2.92 nM
- Scopolamine Induced Reversal (active dose) (rats): ≧30 mg/kg, p.o.
- AUC(0-t) ([2]; Intravenous): 3480 ± 650 ng·h/mL
- Cmax ([2]; Intravenous): 1730 ± 682 ng/mL
- Tmax ([2]; Intravenous): 0.08 h
- half-life ([2]; Intravenous): 2.72 ± 0.4 h
- bioavailability [2]: 19 ± 7%
- AUC(0-t) ([2]; Oral): 674 ± 320 ng·h/mL
- Cmax ([2]; Oral): 140 ± 76.8 ng/mL
- Tmax ([2]; Oral): 2.33 ± 1.53 h
- half-life ([2]; Oral): 5.06 ± 3.28 h
- NORT Discriminative Index (DI), treatment (Male Wister rats; 10 mg/kg): 0.54 (0.48)
- NORT Discriminative Index (DI), treatment (Male Wister rats; 30 mg/kg): 0.52 (0.52)
- NORT Inference (Male Wister rats): Active

SMILES: COc1ccc(S(=O)(=O)n2cc(C)c3cc(F)ccc32)cc1NCCCN(C)C [Example 33, N′-[2-Methoxy-5-(5-fluoro-3-methylindole-1-sulfonyl)phenyl]-N,N-dimethyl propane-1,3-diamine]
- Ki (Human 5-HT6 receptor): 7.34 nM

SMILES: COc1ccc2c(c1)c(C)cn2S(=O)(=O)c1ccc(OC)c(NCCCN(C)C)c1 [Example 35, N′-[2-Methoxy-5-(5-methoxy-3-methylindole-1-sulfonyl)phenyl]-N,N-dimethyl propane-1,3-diamine]
- Ki (Human 5-HT6 receptor): 18.9 nM

SMILES: COc1ccc(NS(=O)(=O)c2sc3ccc(Cl)cc3c2C)cc1N1CCNCC1 [SB-271046, 5-Chloro-N-(4-methoxy-3-piperazin-1-ylphenyl)-3-methyl-2-benzothiophenesulfonamide]
- Activity in animal tests related to positive or negative symptoms of schizophrenia [3]: inactive

SMILES: CN(C)CCC=C1c2ccccc2CCc2ccccc21 [amitriptyline]
- Affinity for the 5-HT6 receptor (5-HT6 receptor): high affinity

SMILES: CN1CCN2c3ccccc3Cc3ccccc3C2C1 (centres unmarked) [mianserin]
- Affinity for the 5-HT6 receptor (5-HT6 receptor): high affinity
